Test results reported in patent publication US4771057A, “Reduced pyridyl derivatives with cardiovascular regulating properties” (University of Alberta, priority 1986, dated 1988).
Like-named read-outs stand apart in the source and are kept apart here.

Experiments:
calcium channel = conditions: literature comparison for D-30; cited from earlier work
guinea pig right atria = assay: Guinea pig right atria heart rate; assay type: cell-based
Experimental: (§1) A modified protocol, used for testing calcium channel antagonists (vide supra), was used to determine the concentration at which D-30 produced 50% of the maximum contractile response. D-30 was administered in the place of CD and the dose-response curve was determined. A calcium antagonist was not added during the experiment. […] Similarly, the effective dose of the isomeric D-31 producing 50% of the maximum contractile response was 6.6×10^-5 M. Both D-30 and D-31 increased the guinea pig right atria heart rate by 30%.

[1] = tested on: guinea pig ileal longitudinal smooth muscle; assay: Calcium channel agonist testing: contractile response of guinea pig ileal longitudinal smooth muscle, compound given in place of CD; assay type: cell-based; conditions: for EC50: Cavia porcellus, given in the place of CD, no calcium antagonist added, read-out: effective dose producing 50% of the maximum contractile response
Experimental: Calcium channel antagonist activity was determined as the concentration required to produce 50% inhibition of the muscarinic receptor-mediated Ca^2+ -dependent contraction of guinea pig ileal longitudinal smooth muscle assay (C. Triggle, V. Swamy and D. Triggle, Can. J. Physiol. Pharmacol., 1979, 57, 804). Male albino guinea pigs (body weight 300-450 g) were sacrificed by decapitation. The intestine was removed above the ileo-caecal junction. Longitudinal smooth muscle segments of 2 cm length were mounted under a resting tension of 300-400 mg. The segments were maintained at 37° C. in a 10 mL jacketed organ bath containing oxygenated (100% O2) physiological saline solution of the following composition (mM): NaCl: 137; CaCl2 : 2.6; KCl: 5.9; MgCl2 : 1.2; glucose: 11.9; buffered by Hepes-NaOH to pH 7.4. The muscles were equilibrated for 1 h with a solution change every 15 min. Two successive control contractions were elicited at 15 min intervals with 5×10^-7 M cis-2-methyl- 4-dimethylaminomethyl-1,3-dioxolane methiodide (CD). The isometric contractions were recorded with a force displacement transducer (FT 03C) on a GRASS physiograph. The means of the two contractile responses was taken as the 100% value for the tonic (slow) component of the response. The muscle was washed with Hepes saline solution and was allowed to re-equilibrate. The calcium antagonist (test compound) was added ten min before the dose-response for CD was determined. The drug-induced inhibition of contraction was expressed as percent of control. The ID50 values were graphically determined from the concentration-response curves. The test results are shown in Table 7, the compounds testing being compared to Nifedipine (TM).
as §1

[2] = target: guinea pig ileal longitudinal smooth muscle; assay: Calcium channel antagonist testing: inhibition of muscarinic receptor-mediated Ca2+-dependent contraction (response to CD) of guinea pig ileal longitudinal smooth muscle; assay type: cell-based; conditions: for IC50: 50% inhibition of tonic contraction to CD 5×10^-7 M, compound added 10 min before CD, 37° C., pH 7.4, read-out: Calcium channel antagonist act., inhib. act. on contractile response to CD, ID50; for calcium channel antagonist activity, comparison to Nifedipine (TM): conclusion from Table 7
Experimental: Male albino guinea pigs (body weight 300-450 g) were sacrificed by decapitation. The intestine was removed above the ileo-caecal junction. Longitudinal smooth muscle segments of 2 cm length were mounted under a resting tension of 300-400 mg. […] The muscles were equilibrated for 1 h with a solution change every 15 min. Two successive control contractions were elicited at 15 min intervals with 5×10^-7 M cis-2-methyl- 4-dimethylaminomethyl-1,3-dioxolane methiodide (CD). The isometric contractions were recorded with a force displacement transducer (FT 03C) on a GRASS physiograph. The means of the two contractile responses was taken as the 100% value for the tonic (slow) component of the response. The muscle was washed with Hepes saline solution and was allowed to re-equilibrate. The calcium antagonist (test compound) was added ten min before the dose-response for CD was determined. The drug-induced inhibition of contraction was expressed as percent of control. The ID50 values were graphically determined from the concentration-response curves.

Row | IC50 ([2]; Cavia porcellus) [µM] | Compound | calcium channel antagonist activity, comparison to Nifedipine (TM) [2] | also measured
1 | – | CCOC(=O)C1=C(C)NC2=C(C(=O)OC2)C1c1ccccc1OC(F)F (stereo not drawn) [CGP 28392] | – | calcium channel agonist activity of reference compounds (calcium channel): calcium channel agonist which promotes calcium entry into cells
2 | – | COC(=O)C1=C(C)NC(C)=C([N+](=O)[O-])C1c1ccncc1 [Compound D-31, methyl 2,6-dimethyl-3-nitro-4-(4'-pyridyl)-1,4-dihydropyridine-5-carboxylate] | – | increase of guinea pig right atria heart rate (guinea pig right atria): 30%; EC50 [1]: 66 µM
3 | – | Diisobutyl 2,6-dimethyl-4-{3'-[N--t-butoxycarbonyl-1',2'-(1',6'-)dihydropyridyl]}-1,4-dihydropyridine-3,5-dicarboxylate [Compound D-42] | – | IC50 [2]: 3.42 µM
4 | 43.6 | COC(=O)C1=C(C)NC(C)=C(C(=O)OCCN(C)C)C1c1ccccn1 [Compound D-4, 3-[2-(N,N--dimethylamino)ethyl]-5-methyl 2,6-dimethyl-4-(2'-pyridyl)-1,4-dihydropyridine-3,5-dicarboxylate] | – | –
5 | – | 3-Isobutyl-5-methyl 2,6-dimethyl-4-{3'-[N--methoxycarbonyl-1',2'-(1',6'-)dihydropyridyl]}-1,4-dihydropyridine-3,5-dicarboxylate [Compound D-43] | active calcium channel antagonists, being comparable to Nifedipine (TM) | IC50 [2]: 0.031 µM
6 | – | Diisobutyl 2,6-dimethyl-4-{3'-[N--phenoxycarbonyl-1',2'-(1',6'-)dihydropyridyl]}-1,4-dihydropyridine-3,5-dicarboxylate [Compound D-39] | – | IC50 [2]: 6.46 µM
7 | 10.5 | COC(=O)C1=C(C)N(C)C(C)C(C(=O)OC(C)C)=C1c1ccccc1[N+](=O)[O-] (stereo not drawn) [Compound W-3, 3-Isopropyl-5-methyl 1,2,6-trimethyl-4-(2-nitrophenyl)-1,2-dihydropyridine-3,5-dicarboxylate] | – | –
8 | 5.73 | CC1=C(C(=O)OC(C)C)C(c2ccccc2[N+](=O)[O-])=C(C(=O)OC(C)C)C(C)N1C (stereo not drawn) [Compound W-4, Diisopropyl 1,2,6-trimethyl-4-(2-nitrophenyl)-1,2-dihydropyridine-3,5-dicarboxylate] | – | –
9 | 2.52 | COC(=O)C1=C(C)N(C)C(C)C(C(=O)OC)=C1c1ccccc1[N+](=O)[O-] (stereo not drawn) [Compound S-6, Dimethyl 1,2,6-trimethyl-4-(2-nitrophenyl)-1,2-dihydropyridine-3,5-dicarboxylate] | – | –
10 | 0.097 | COC(=O)C1=C(C)NC(C)=C(C(=O)OC(C)C)C1c1cccnc1 [Compound D-6, 3-Isopropyl-5-methyl 2,6-dimethyl-4-(3'-pyridyl)-1,4-dihydropyridine-3,5-dicarboxylate] | active calcium channel antagonists, being comparable to Nifedipine (TM) | –
11 | 0.231 | CC1=C(C(=O)OC(C)C)C(c2ccncc2)C(C(=O)OC(C)C)=C(C)N1 [Compound D-22, 3,5-Diisopropyl 2,6-dimethyl-4-(4'-pyridyl)-1,4-dihydropyridine-3,5-dicarboxylate] | active calcium channel antagonists, being comparable to Nifedipine (TM) | –
12 | – | Diisobutyl 2,6-dimethyl-4-{3'-[N--methoxycarbonyl-1',2'(1',6'-)dihydropyridyl]}-1,4-dihydropyridine-3,5-dicarboxylate [Compound D-35] | active calcium channel antagonists, being comparable to Nifedipine (TM) | IC50 [2]: 0.771 µM
13 | – | COC(=O)C1=C(C)NC(C)=C([N+](=O)[O-])C1c1cccnc1 [Compound D-30, methyl 2,6-dimethyl-3-nitro-4-(3'-pyridyl)-1,4-dihydropyridine-5-carboxylate] | – | increase of guinea pig right atria heart rate (guinea pig right atria): 30%; EC50 [1]: 94 µM; calcium channel agonist activity ([1]; conclusion from contractile response): calcium channel agonist which promotes calcium entry into cells; muscle contraction ([1]; tested using the calcium channel antagonist testing procedure): caused muscle contraction
14 | 5 | COC(=O)C1=C(C)NC(C)=C(C(=O)OC)C1c1ccncc1 [Compound D-9, 3,5-Dimethyl 2,6-dimethyl-4-(4'-pyridyl)-1,4-dihydropyridine-3,5-dicarboxylate] | – | –
15 | – | COC(=O)C1=C(C)NC(C)=C([N+](=O)[O-])C1c1ccccc1C(F)(F)F (stereo not drawn) [Bay K 8644] | – | calcium channel agonist activity of reference compounds (calcium channel): calcium channel agonist which promotes calcium entry into cells
16 | – | 3,5-Dicyano-2,6-dimethyl-4-{3'-[N--methoxycarbonyl-1',2'-(1',6'-)dihydropyridyl]}-1,4-dihydropyridine [Compound D-48] | – | IC50 [2]: 34 µM
17 | 357 | CC1=C(C#N)C(c2cccnc2)C(C#N)=C(C)N1 [Compound D-27, 3,5-dicyano-2,6-dimethyl-4-(3'-pyridyl)-1,4-dihydropyridine] | – | –
18 | 2.32 | COC(=O)C1=C(C)NC(C)=C(C(=O)OC)C1c1ccccn1 [Compound D-1, 3,5-dimethyl 2,6-dimethyl-4-(2'-pyridyl)-1,4-dihydropyridine-3,5-dicarboxylate] | – | –
19 | 0.51 | CC1=C(C(=O)OCC(C)C)C(C2=CCN(C(=O)Oc3ccccc3)C=C2)C(C(=O)OCC(C)C)=C(C)N1 [Compound D-56, Diisobutyl 2,6-dimethyl-4-[4'-(N--phenoxycarbonyl)]-1,4-di-hydropyridine-3,5-dicarboxylate] | active calcium channel antagonists, being comparable to Nifedipine (TM) | –
20 | 33.4 | COC(=O)C1=C(C)NC(C)=C(C(=O)OCCN(C)C)C1c1cccnc1 [Compound D-8, 3-[2-(N,N--dimethylamino)ethyl]-5-methyl 2,6-dimethyl-4-(3'-pyridyl)-1,4-dihydropyridine-3,5-dicarboxylate] | – | –
21 | 0.0956 | COC(=O)C1=C(C)NC(C)=C(C(=O)OC(C)C)C1c1ccccn1 [Compound D-2, 3-Isopropyl-5-methyl 2,6-dimethyl-4-(2'-pyridyl)-1,4-dihydropyridine-3,5-dicarboxylate] | active calcium channel antagonists, being comparable to Nifedipine (TM) | –
22 | 0.041 | COC(=O)C1=C(C)NC(C)=C(C(=O)OCC(C)C)C1c1ccccn1 [Compound D-3, 3-Isobutyl-5-methyl 2,6-dimethyl-4-(2'-pyridyl)-1,4-dihydropyridine-3,5-dicarboxylate] | active calcium channel antagonists, being comparable to Nifedipine (TM) | –
23 | 0.56 | COC(=O)C1=C(C)NC(C)=C(C(=O)OC(C)C)C1c1ccncc1 [Compound D-10, 3-Isopropyl-5-methyl 2,6-dimethyl-4-(4'-pyridyl)-1,4-dihydropyridine-3,5-dicarboxylate] | active calcium channel antagonists, being comparable to Nifedipine (TM) | –
24 | 0.0936 | CC1=C(C(=O)OCC(C)C)C(c2ccccn2)C(C(=O)OCC(C)C)=C(C)N1 [Compound D-15, 3,5-Diisobutyl 2,6-dimethyl-4-(2'-pyridyl)-1,4-dihydropyridine-3,5-dicarboxylate] | active calcium channel antagonists, being comparable to Nifedipine (TM) | –
25 | 1.1 | CCOC(=O)C1=C(C)NC(C)=C(C(=O)OCC)C1C1=CCCN(C)C1 [Compound D-69, Diethyl 2,6-dimethyl-4-[5'-(N--methyl-1',2',3',6'-tetrahydropyridyl)]-1,4-dihydropyridine-3,5-dicarboxylate] | – | –
26 | 67.5 | COC(=O)N1C=CC(C2C(C#N)=C(C)NC(C)=C2C#N)=CC1 [Compound D-59, 3,5-Dicyano-2,6-dimethyl-4-[4'-(N--methoxycarbonyl)]-1,4-dihydropyridine] | – | –
